Test results: US20240132489A1, “AROMATIC HETEROCYCLIC COMPOUND, PHARMACEUTICAL COMPOSITION, AND USE THEREOF” (GT APEIRON THERAPEUTICS LIMITED, priority 2020, published 2024)
Where a name gives a salt, the structure may show the parent alone.

Key:
[1] = tested on: A2780 cells; test: Cell bioactivity detection (CyQuant), A2780; assay type: cell-based, human; conditions: ovarian carcinoma cells A2780, 72 hours
Method: (§1) Trypsinization was performed on A2780 and HCC70 cells. Cell suspensions were respectively transferred to 15 mL of centrifuge tubes and centrifuged at 800 rpm for 5 min. The supernatant was discarded. Resuspension in a fresh culture medium (RPMI 1640+10% FBS) was performed. After counting, the cells were inoculated at 2000/well in a 384-well plate (50 φL of 1640+10% FBS culture medium was added to the 2nd line and the 23rd line of the 384-well plate, and 50 μL of DPBS was added to surrounding wells). Incubation in an incubator (37° C., 5% CO2) was performed overnight.
(§2) The compound was added to the well plate the next day. The compound had the highest concentration of 10 μM and was diluted at the ratio of 1:4 to form 9 concentrations. The positive compound Paclitaxel had the highest concentration of 1 μM and was diluted at the ratio of 1:3 to form 9 concentrations. The DMSO content of each well was unified to 0.2%. A cell plate was centrifuged at 800 rpm for 30 seconds. Incubation for 72 hours in an incubator (37° C., 5% CO2) was performed. On the fourth day, a Cyquant reagent (3×) was prepared according to kit instructions. Each 384-well plate was prepared in the following proportions: DPBS: 11.568 mL, CyQuant® Direct nucleic acid stain: 72 μL, CyQuant® Direct background suppressor: 360 ILL. The plates were uniformly mixed and placed for standby application at room temperature. The cell plate was taken out and placed at room temperature to be balanced for 30 min. 25 μL of Cyquant reagent (3×) was dispensed to the cells in each well of the 384-well plates by using a Multi-drop dispenser. Incubation at 37° C. for 60 or more minutes was performed. The plates were read by Acumen (Acumen was configured to have a 488 nm excitation wavelength). IC50 results were analyzed by XLFIT5 of the IDBS company.

[2] = tested on: HCC70 cells; test: Cell bioactivity detection (CyQuant), HCC70; assay type: cell-based; conditions: human breast cancer cells HCC70, 72 hours
Method: as §1, §2

[3] = target: CDK9/CyclinT1 (Homo sapiens (Human), UniProt P50750); test: In vitro enzymatic inhibitory activity test, CDK9; assay type: biochemical; conditions: Caliper mobility shift, 180 min at 27° C.
Method: (§3) CDK7/CyclinH was diluted in a test buffer solution (20 mM MES PH6.75, 0.01% Tween20, 50 ug/mL BSA, 6 mM MgCl2) to obtain a corresponding enzyme solution with a 2.4× concentration. CDK2/CyclinE1 was diluted in a test buffer solution (20 mM MES PH6.75, 0.01% Tween20, 50 ug/mL BSA, 6 mM MgCl2) to obtain a corresponding enzyme solution with a 2.4× concentration. CDK9/CyclinT1 was diluted in a test buffer solution (20 mM MES PH6.75, 0.01% Tween20, 50 ug/mL BSA, 10 mM MgCl2) to obtain a corresponding enzyme solution with a 2.4× concentration. CDK12/CyclinK was diluted in a test buffer solution (80 mM MES PH6.5, 0.01% Tween20, 50 ug/mL BSA, 10 mM MgCl2) to obtain a corresponding enzyme solution with a 2.4× concentration. The compounds were dissolved in dimethyl sulfoxide (DMSO) at a concentration of 10 mM. […] 2 ul of a test compound solution was mixed with 5 ul of enzyme solution. After incubating for 10 min, 5 ul of the mixed solution of the polypeptide substrate and ATP was added. After incubating at 27° C. for 180 min, 4 uL of EDTA with a 120 mM concentration was added to each sample to stop the reaction. […] A CDK9/cyclin TI complex (8 nM) and a “5-FAM-CDK9tide” peptide substrate (2 μM, synthetic fluorophore labeled peptide having the following sequence: 5-FAM-GSRTPMY-NH2, where 5-FAM was as defined above, and NH2 represented C-terminal amide) were used for testing the CDK9 inhibition. […] A CDK2/cyclin E1 complex (0.5 nM) and the “5-FAM-CDK7tide” (2 μM) as defined above were used for testing the CDK2 inhibition.
(§4) Electrophoretic separation was performed on Caliper EZ Reader II by means of a fluorogenic substrate and a phosphorylated product to analyze the reaction mixture. Data were calculated by using GraphPad Prism version 6.0. IC50 values were adjusted by means of a nonlinear regression model using a dose-response curve.

[4] = target: CDK7/cyclin H/MAT1 complex (Homo sapiens (Human), UniProt P50613); test: In vitro enzymatic inhibitory activity test, CDK7; assay type: biochemical; conditions: Caliper mobility shift, 180 min at 27° C.
Method: as §3, §4

[5] = target: CDK2/cyclin E1 complex (Homo sapiens (Human), UniProt P24941); test: In vitro enzymatic inhibitory activity test, CDK2; assay type: biochemical; conditions: Caliper mobility shift, 180 min at 27° C.
Method: CDK7/CyclinH was diluted in a test buffer solution (20 mM MES PH6.75, 0.01% Tween20, 50 ug/mL BSA, 6 mM MgCl2) to obtain a corresponding enzyme solution with a 2.4× concentration. CDK2/CyclinE1 was diluted in a test buffer solution (20 mM MES PH6.75, 0.01% Tween20, 50 ug/mL BSA, 6 mM MgCl2) to obtain a corresponding enzyme solution with a 2.4× concentration. CDK9/CyclinT1 was diluted in a test buffer solution (20 mM MES PH6.75, 0.01% Tween20, 50 ug/mL BSA, 10 mM MgCl2) to obtain a corresponding enzyme solution with a 2.4× concentration. CDK12/CyclinK was diluted in a test buffer solution (80 mM MES PH6.5, 0.01% Tween20, 50 ug/mL BSA, 10 mM MgCl2) to obtain a corresponding enzyme solution with a 2.4× concentration. […] 2 ul of a test compound solution was mixed with 5 ul of enzyme solution. After incubating for 10 min, 5 ul of the mixed solution of the polypeptide substrate and ATP was added. After incubating at 27° C. for 180 min, 4 uL of EDTA with a 120 mM concentration was added to each sample to stop the reaction. […] A CDK9/cyclin TI complex (8 nM) and a “5-FAM-CDK9tide” peptide substrate (2 μM, synthetic fluorophore labeled peptide having the following sequence: 5-FAM-GSRTPMY-NH2, where 5-FAM was as defined above, and NH2 represented C-terminal amide) were used for testing the CDK9 inhibition. […] A CDK2/cyclin E1 complex (0.5 nM) and the “5-FAM-CDK7tide” (2 μM) as defined above were used for testing the CDK2 inhibition.
as §4

[6] = target: CDK12(aa686-1082)/cyclin K complex (Homo sapiens (Human), UniProt Q9NYV4); test: In vitro enzymatic inhibitory activity test, CDK12; assay type: biochemical; conditions: Caliper mobility shift, 180 min at 27° C.
Method: as §3, §4

Sequence of CDK12(aa686-1082)/cyclin K complex (Q9NYV4 686-1082, species assumed): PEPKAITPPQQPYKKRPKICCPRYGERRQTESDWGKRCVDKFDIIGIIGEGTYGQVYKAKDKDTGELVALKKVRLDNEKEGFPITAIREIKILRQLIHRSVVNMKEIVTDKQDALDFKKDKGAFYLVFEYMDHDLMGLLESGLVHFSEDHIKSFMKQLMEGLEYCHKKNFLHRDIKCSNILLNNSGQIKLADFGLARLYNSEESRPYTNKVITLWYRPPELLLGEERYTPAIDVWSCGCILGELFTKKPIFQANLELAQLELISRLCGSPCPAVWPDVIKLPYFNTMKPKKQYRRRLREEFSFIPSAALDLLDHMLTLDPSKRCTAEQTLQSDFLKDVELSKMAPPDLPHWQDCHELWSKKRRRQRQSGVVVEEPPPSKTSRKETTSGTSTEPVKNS
Sequence of CDK12(aa686-1082)/cyclin K complex (O75909 whole entry partner, species assumed, the tested form may be a part): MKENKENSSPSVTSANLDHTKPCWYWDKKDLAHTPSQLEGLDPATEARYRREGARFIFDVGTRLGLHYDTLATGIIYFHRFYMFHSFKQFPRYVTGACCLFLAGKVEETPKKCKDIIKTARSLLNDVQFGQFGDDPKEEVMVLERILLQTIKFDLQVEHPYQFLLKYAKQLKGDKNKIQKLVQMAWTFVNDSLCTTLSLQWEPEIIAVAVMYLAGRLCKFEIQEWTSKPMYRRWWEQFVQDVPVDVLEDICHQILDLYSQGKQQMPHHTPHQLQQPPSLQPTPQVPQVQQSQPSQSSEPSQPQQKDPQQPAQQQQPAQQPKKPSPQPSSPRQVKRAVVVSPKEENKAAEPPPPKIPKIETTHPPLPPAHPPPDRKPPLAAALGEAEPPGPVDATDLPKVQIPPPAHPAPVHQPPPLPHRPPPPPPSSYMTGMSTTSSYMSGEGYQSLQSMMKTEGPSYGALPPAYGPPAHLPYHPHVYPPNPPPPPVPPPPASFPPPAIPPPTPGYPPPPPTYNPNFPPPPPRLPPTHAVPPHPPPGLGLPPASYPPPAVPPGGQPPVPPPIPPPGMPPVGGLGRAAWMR
Sequence of CDK9/CyclinT1 (P50750 whole entry, species assumed): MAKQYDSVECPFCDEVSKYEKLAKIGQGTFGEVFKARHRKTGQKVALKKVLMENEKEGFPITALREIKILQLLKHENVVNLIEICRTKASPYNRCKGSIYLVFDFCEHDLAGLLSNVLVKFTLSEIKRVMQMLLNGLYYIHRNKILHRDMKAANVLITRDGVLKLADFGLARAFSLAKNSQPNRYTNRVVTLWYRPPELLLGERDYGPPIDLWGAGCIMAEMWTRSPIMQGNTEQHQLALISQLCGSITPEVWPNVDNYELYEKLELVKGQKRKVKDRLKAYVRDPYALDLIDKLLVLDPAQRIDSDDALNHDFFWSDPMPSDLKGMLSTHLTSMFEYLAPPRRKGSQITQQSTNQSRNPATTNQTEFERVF
Sequence of CDK9/CyclinT1 (O60563 whole entry partner, species assumed): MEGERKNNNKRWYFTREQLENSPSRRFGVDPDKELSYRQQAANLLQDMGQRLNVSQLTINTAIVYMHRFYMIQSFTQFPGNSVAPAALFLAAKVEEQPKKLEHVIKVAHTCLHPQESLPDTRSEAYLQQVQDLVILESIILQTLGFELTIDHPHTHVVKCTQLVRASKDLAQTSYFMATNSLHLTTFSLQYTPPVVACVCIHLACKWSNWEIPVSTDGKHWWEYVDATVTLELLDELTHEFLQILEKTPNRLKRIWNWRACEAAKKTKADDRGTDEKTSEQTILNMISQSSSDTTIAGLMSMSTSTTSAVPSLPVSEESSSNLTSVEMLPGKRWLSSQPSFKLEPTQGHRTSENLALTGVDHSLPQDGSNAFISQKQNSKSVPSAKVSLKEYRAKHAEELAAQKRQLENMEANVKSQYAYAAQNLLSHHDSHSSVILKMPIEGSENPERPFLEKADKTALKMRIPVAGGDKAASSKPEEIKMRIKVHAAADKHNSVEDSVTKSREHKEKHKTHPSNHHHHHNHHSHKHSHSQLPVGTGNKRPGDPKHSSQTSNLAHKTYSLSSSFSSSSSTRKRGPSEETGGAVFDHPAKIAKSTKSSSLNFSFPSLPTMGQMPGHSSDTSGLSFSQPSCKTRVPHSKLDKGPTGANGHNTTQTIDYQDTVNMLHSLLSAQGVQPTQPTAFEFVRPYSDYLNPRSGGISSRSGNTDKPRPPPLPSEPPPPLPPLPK
Sequence of CDK7/cyclin H/MAT1 complex (P50613 whole entry, species assumed): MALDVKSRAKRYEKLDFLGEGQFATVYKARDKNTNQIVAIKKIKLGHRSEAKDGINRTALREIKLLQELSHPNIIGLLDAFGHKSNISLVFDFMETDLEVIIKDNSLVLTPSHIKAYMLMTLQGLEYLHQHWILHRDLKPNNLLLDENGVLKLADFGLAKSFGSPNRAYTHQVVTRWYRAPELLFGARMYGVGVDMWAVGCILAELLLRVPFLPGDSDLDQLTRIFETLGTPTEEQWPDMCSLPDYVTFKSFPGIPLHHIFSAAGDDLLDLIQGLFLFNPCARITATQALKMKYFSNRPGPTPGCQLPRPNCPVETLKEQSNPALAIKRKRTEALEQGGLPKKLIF
Sequence of CDK7/cyclin H/MAT1 complex (P51946 whole entry partner, species assumed): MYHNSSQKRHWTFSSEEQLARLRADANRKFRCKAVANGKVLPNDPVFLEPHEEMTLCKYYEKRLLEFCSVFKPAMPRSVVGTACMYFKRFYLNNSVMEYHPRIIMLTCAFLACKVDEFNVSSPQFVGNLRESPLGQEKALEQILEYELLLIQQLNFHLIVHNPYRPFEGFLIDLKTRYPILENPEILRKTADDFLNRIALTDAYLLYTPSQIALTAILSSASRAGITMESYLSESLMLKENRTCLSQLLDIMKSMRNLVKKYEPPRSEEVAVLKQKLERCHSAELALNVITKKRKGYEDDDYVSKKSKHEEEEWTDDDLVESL
Sequence of CDK7/cyclin H/MAT1 complex (P51948 whole entry partner, species assumed): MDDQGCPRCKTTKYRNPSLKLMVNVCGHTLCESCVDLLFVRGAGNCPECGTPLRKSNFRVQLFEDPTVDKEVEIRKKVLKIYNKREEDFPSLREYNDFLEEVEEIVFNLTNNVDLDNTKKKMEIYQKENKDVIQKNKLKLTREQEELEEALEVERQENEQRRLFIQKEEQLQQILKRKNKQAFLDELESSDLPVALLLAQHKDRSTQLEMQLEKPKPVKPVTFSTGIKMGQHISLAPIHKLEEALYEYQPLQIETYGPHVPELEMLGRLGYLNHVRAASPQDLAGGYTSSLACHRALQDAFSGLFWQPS

Row | IC50 ([1]; Homo sapiens, A2780, 72 h) | IC50 [3] | IC50 [4] | IC50 [5] | IC50 [6] | IC50 [1] | Structure (SMILES) | IC50 ([2]; Homo sapiens, HCC70, 72 h) | IC50 [2]
1 | 6.27 nM | 1440 nM | 6.4 nM | 1510 nM | 567 nM |  | FC(F)(F)c1cnc(N[C@H]2CCCNC2)nc1-c1c[nH]c2nc(C3CCOC3)ccc12 (single isomer, unassigned) [Compound 107] | 6.77 nM | 
2 |  | 1410 nM | 4.36 nM | 947 nM | 512 nM | 3.9 nM | FC(F)(F)c1cnc(N[C@H]2CCCNC2)nc1-c1c[nH]c2nc(C3CCOC3)ccc12 (single isomer, unassigned) [Compound 108] |  | 3.8 nM
3 | 14 nM | 1180 nM | 13.4 nM | 3020 nM | 1460 nM |  | FC(F)(F)c1cnc(N[C@H]2CCCNC2)nc1-c1c[nH]c2nc(N3CCOCC3)ccc12 [Compound 1, (S)-4-(6-morpholinyl-1H-pyrrolo[2,3-b]pyridin-3-yl)-N-(piperidin-3-yl)-5-(trifluoromethyl)pyrimidine-2-amine] | 14 nM | 
4 | 16 nM | 1040 nM | 10.4 nM | 4380 nM | 1840 nM |  | FC(F)(F)c1cnc(N[C@H]2CCCNC2)nc1-c1c[nH]c2nc(N3C[C@H]4C[C@@H]3CO4)ccc12 [Compound 2, 4-(6-((1R,4R)-2-oxa-5-azabicyclo[2.2.1]heptan-5-yl)-1H-pyrrolo[2,3-b]pyridin-3-yl)-N—((S)-piperidin-3-yl)-5-(trifluoromethyl)pyrimidine-2-amine] | 15 nM | 
5 | 12 nM | 722 nM | 17.4 nM | 2680 nM | 679 nM |  | OC1CCN(c2ccc3c(-c4nc(N[C@H]5CCCNC5)ncc4C(F)(F)F)c[nH]c3n2)CC1 [Compound 3, (S)-1-(3-(2-(piperidin-3-ylamino)-5-(trifluoromethyl)pyrimidin-4-yl)-1H-pyrrolo[2,3-b]pyridin-6-yl)piperidin-4-ol] | 7.9 nM | 
6 | 8 nM | 682 nM | 17.4 nM | 1480 nM | 733 nM |  | OCC1CCN(c2ccc3c(-c4nc(N[C@H]5CCCNC5)ncc4C(F)(F)F)c[nH]c3n2)CC1 [Compound 4] | 6.1 nM | 
7 | 17 nM | 907 nM | 12.1 nM | 2250 nM | 1020 nM |  | FC(F)(F)c1cnc(N[C@H]2CCCNC2)nc1-c1c[nH]c2nc(N3CC4COCC4C3)ccc12 (stereo partly drawn) [Compound 5, N—((S)-piperidin-3-yl)-4-(6-(tetrahydro-1H-furan[3,4-c]pyrrol-5(3H)-yl)-1H-pyrrolo[2,3-b]pyridin-3-yl)-5-(trifluoromethyl)pyrimidine-2-amine] | 19 nM | 
8 | 22 nM | 1040 nM | 10.4 nM | 4380 nM | 1840 nM |  | CC1(O)CCN(c2ccc3c(-c4nc(N[C@H]5CCCNC5)ncc4C(F)(F)F)c[nH]c3n2)C1 (stereo partly drawn) [Compound 6, 3-methyl-1-(3-(2-(((S)-piperidin-3-yl)amino)-5-(trifluoromethyl)pyrimidin-4-yl)-1H-pyrrolo[2,3-b]pyridin-6-yl)pyrrolidin-3-ol] | 6.7 nM | 
9 | 21.9 nM | 3250 nM | 24.3 nM | 4500 nM | 2060 nM |  | FC(F)(F)c1cnc(N[C@H]2CCCNC2)nc1-c1c[nH]c2nc(N3CCCC4(CCOC4)C3)ccc12 (stereo partly drawn) [Compound 7, 4-(6-(2-oxa-7-azaspiro[4.5]decan-7-yl)-1H-pyrrolo[2,3-b]pyridin-3-yl)-N—((S)-piperidin-3-yl)-5-(trifluoromethyl)pyrimidine-2-amine] | 28 nM | 
10 | 19.1 nM | 15900 nM | 40.3 nM | 17500 nM | 9320 nM |  | FC(F)(F)c1cnc(N[C@H]2CCCNC2)nc1-c1c[nH]c2nc(N3CCC4(COC4)C3)ccc12 [Compound 8, (S)-4-(6-(2-oxa-6-azaspiro[3.4]octan-6-yl)-1H-pyrrolo[2,3-b]pyridin-3-yl)-N-(piperidin-3-yl)-5-(trifluoromethyl)pyrimidine-2-amine] | 16 nM | 
11 | 36.3 nM | 4530 nM | 28.7 nM | 7290 nM | 1270 nM |  | FC(F)(F)c1cnc(N[C@H]2CCCNC2)nc1-c1c[nH]c2nc(N3CCC4(CCOC4)CC3)ccc12 [Compound 9, (S)-4-(6-(2-oxa-8-azaspiro[4.5]decan-8-yl)-1H-pyrrolo[2,3-b]pyridin-3-yl)-N-(piperidin-3-yl)-5-(trifluoromethyl)pyrimidine-2-amine] | 44 nM | 
12 |  | > 10000 nM | 82.9 nM | > 10000 nM | > 10000 nM |  | FC(F)(F)c1cnc(N[C@@H]2[C@@H]3CC[C@H]2NC3)nc1-c1c[nH]c2nc(N3CCOCC3)ccc12 [Compound 43, (1R,4R,7R)—N-(4-(6-morpholinyl-1H-pyrrol[2,3-b]pyridin-3-yl)-5-(trifluoromethyl)pyrimidin-2-yl)-2-azabicyclo[2.2.1]heptan-7-amine formate] | 6070 nM | 
13 |  | > 50000 nM | 28.4 nM | 47100 nM | 49100 nM |  | C[C@H]1CC[C@H](Nc2ncc(C(F)(F)F)c(-c3c[nH]c4nc(N5CCOC[C@@H]5C)ccc34)n2)CN1 [Compound 69, 4-(6-((S)-3-methylmorpholine)-1H-pyrrol[2,3-b]pyridin-3-yl)-N-((3S,6S)-6-methylpiperidin-3-yl)-5-(trifluoromethyl)pyrimidine-2-amine] |  | 642 nM
14 |  |  | 5.82 nM |  |  |  | FC(F)(F)c1cnc(N[C@@H]2CCCNC2)nc1-c1c[nH]c2nc(C3CCCCO3)ccc12 (stereo partly drawn) [Compound 112] |  | 
15 |  |  | 4.76 nM |  |  |  | FC(F)(F)c1cnc(N[C@H]2CCCNC2)nc1-c1c[nH]c2nc(C3CCCCO3)ccc12 (stereo partly drawn) [Compound 113] |  | 
